Our source for the pK and Ki values is ChEMBL document CHEMBL1122542, “A 1H NMR study of the interactions and conformations of rationally designed brodimoprim analogues in complexes with Lactobacillus casei dihydrofolate reductase” (J Med Chem, 1984).

As a reminder, the Ki is a dissociation constant, usually derived from enzyme kinetics or from competition with a known ligand.

Assay [1] concerns the target Dihydrofolate reductase (Lactobacillus casei) (UniProt P00381). Nature of the assay: Tested for pK value of histidine residue(His-28) of dihydrofolate reductase from Lactobacillus casei. It is filed as functional. Conditions: Lacticaseibacillus casei.
Assay [2] concerns the target T1, Dihydrofolate reductase (Lactobacillus casei, UniProt P00381). Nature of the assay: Inhibition constant of compound against Lactobacillus casei dihydrofolate reductase. Also noted: species or system Lacticaseibacillus casei.
Assay [3] concerns the target T1, Dihydrofolate reductase. Nature of the assay: Inhibition constant of compound against Lactobacillus casei Dihydrofolate reductase. Also on record: species or system Lacticaseibacillus casei.
The target in assay [4] is Dihydrofolate reductase (Lactobacillus casei) (UniProt P00381). Conditions: Lacticaseibacillus casei.
Dihydrofolate reductase (Lactobacillus casei), sequence (P00381 whole entry): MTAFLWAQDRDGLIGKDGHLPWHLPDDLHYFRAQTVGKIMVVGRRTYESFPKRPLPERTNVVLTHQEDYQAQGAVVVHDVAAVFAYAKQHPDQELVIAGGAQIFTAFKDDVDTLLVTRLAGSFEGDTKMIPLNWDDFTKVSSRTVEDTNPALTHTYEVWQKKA
Description: Tested for pK value of histidine residue(His-28) of Dihydrofolate reductase from Lactobacillus casei

Where only a bound is given, the exact number is not on record here.

T1 sequence (P00381 whole entry): as above

In assay [1], `COc1cc(Cc2cnc(N)nc2N)cc(OCCCNCCC(=O)O)c1Br` yielded a pK of 6.71. This molecule also showed a Ki on Dihydrofolate reductase [2] of 5.3 nM.

`COc1cc(Cc2cnc(N)nc2N)cc(OCCC(=O)NCC(=O)O)c1Br` showed a Ki at Dihydrofolate reductase [3] of 4.1 nM. Also, in assay [4], the pK was 6.71.

Turning to `COc1cc(Cc2cnc(N)nc2N)cc(OCCCC(=O)O)c1Br`, the affinity at Dihydrofolate reductase [3] corresponds to a Ki of 0.9 nM.

`COc1cc(Cc2cnc(N)nc2N)cc(OCCCCCCC(=O)O)c1Br`: the Ki on Dihydrofolate reductase [3] came to 0.6 nM. Moreover, in assay [4], the pK worked out at 6.8.

On Dihydrofolate reductase [3], `COc1cc(Cc2cnc(N)nc2N)cc(OCCCCC(=O)O)c1Br` gave a Ki of 0.2 nM. Further, in assay [4], the pK is 6.83.

In turn, `COc1cc(Cc2cnc(N)nc2N)cc(OC)c1Br` [BRODIMOPRIM] gave a pK in assay [1] of 6.8. Further, the Ki on Dihydrofolate reductase [2] came out at 11.3 nM.

As for `COc1cc(Cc2cnc(N)nc2N)cc(OCCC(=O)NC(CCC(=O)O)C(=O)O)c1Br` (stereo unspecified), affinity on Dihydrofolate reductase [3] was put at a Ki of 1.7 nM. Moreover, the pK in assay [4] worked out at 7.12.

As for `COc1cc(Cc2cnc(N)nc2N)cc(OCCCC(CCC(=O)O)C(=O)O)c1Br` (stereo unspecified), on Dihydrofolate reductase [3], the Ki was below 0.01 nM. Also, in assay [4], the pK came out at 7.8.

On to `COc1cc(Cc2cnc(N)nc2N)cc(OCCCCCC(=O)O)c1Br`, for which, on Dihydrofolate reductase [3], the Ki was found to be 0.4 nM.
